Where “and” joins values, the source holds several entries; their conditions need not be identical. Identical values can stand only once. Entries after “also recorded” stand apart in the source; their conditions may differ.
Key:
rat cardiomyocytes = conditions: cited from earlier work
[1] = test system: isolated guinea pig hearts; experiment: Improved functional recovery in isolated hearts (low flow ischemia/reperfusion); conditions: for Preischemic Flow: Conc. 0.3 (M) as printed; for Functional Recovery: Conc. 0.3 as printed, p < 0.05 vs. Control
Method: The ability of a number of adenosine kinase inhibitors to improve the recovery of post-ischemic function was examined in an isolated guinea pig heart model.
Isolated guinea pig hearts were cannulated via the ascending aorta and-attached to a perfusion apparatus according to the method of Langendorff. The hearts were perfused at a constant pressure of 60 cm of H2 O with a modified Krebs-Hanseleit buffer (pH 7.4) at 37° C. Left ventricular developed pressures (LVDP) were monitored continuously using a latex balloon attached to a pressure transducer. Coronary flows were measured gravimetrically by timed collection of pulmonary effluent. Following equilibration of the hearts for a period of 30 minutes, the hearts were subjected to 45 minutes of low flow ischemia, by reducing the perfusion pressure to 10 cm of H2 O, and then reperfused for 30 minutes by restoring the pressure to its original level (60 cm of H2 O). The adenosine kinase inhibitors BP-1-238, GP-1-515 and GP1-547 were added to the perfusion buffer at the final concentrations specified.

[2] = test system: isolated guinea pig ileum longitudinal muscle; experiment: Inhibition of contraction in isolated ileum; conditions: for inhibition of contraction in the isolated ileum: electrically stimulated; for reversal of inhibition of contraction: with 8-sulfophenyltheophylline (8SPT) or adenosine deaminase (ADA)
Method: The ability of adenosine kinase inhibition to affect stimulated contraction of muscle strips from the isolated ileum has been investigated.
Parallel platinum electrodes were used to deliver electrical current at 1 minute intervals at a voltage adequate to induce contraction of 90% of maximal. The adenosine kinase inhibitors, GP-1-515 or GP-1-547 were added to the tissue baths at different concentrations, with or without either the adenosine receptor antagonist, 8-sulphophenyltheophylline (8SPT) or adenosine deaminase (ADA), and the effects on contraction monitored.

[3] = test system: canine coronary thrombosis / cyclic flow reductions; experiment: Canine model of platelet-induced coronary thrombosis (Folts; cyclic flow reductions); format: in vivo, dog
Method: GP-1-515 was tested in a canine model of platelet-induced coronary thrombosis (Folts, J., Circulation, 1991, 83[Suppl. IV]:IV-3-IV-14). In this model, platelets cyclically aggregate and embolize causing cyclic flow reductions (CFRs) that are quantitated by the frequency and the change in coronary blood flow from low point to peak with each cycle.

anesthetized male dogs = experiment: Preclinical model of stable angina (repeated pacing-induced ischemia); format: in vivo, dog; conditions: intravenous infusion
Method: GP-1-515, was evaluated for its ability to prevent cumulative cardiac dysfunction associated with repeated episodes of pacing-induced ischemia.
Anesthetized male dogs were instrumented to measure regional myocardial wall thickening during right atrial pacing (Young & Mullane, Am. J. Physio., 1991, 261:1570-1577). Animals were subjected to six repeated episodes of pacing. A continuous IV infusion of 1 μg/kg/min of GP-1-515 or saline (control) was administered post pace #1.

[4] = test system: isolated guinea pig hearts; conditions: absence of ADA inhibition; cited from earlier work
cardiac adenosine kinase = conditions: systemic or, in some cases, oral administration
[5] = test system: neutrophil adherence to endothelial cells; experiment: Inhibition of neutrophil adherence to endothelial cells; format: cell-based, human; conditions: for inhibition of neutrophil adhesion to endothelial cells: fMLP-stimulated human neutrophils, 2 hours, 37° C.; for reversal of inhibition of neutrophil adhesion by adenosine deaminase: with adenosine deaminase 0.125 U/ml
Method: The ability of an adenosine kinase inhibitor to affect neutrophil adherence to fibroblasts and endothelial cells was evaluated in a cell culture model.
These incubations were carried out in the presence of fMLP-stimulated human neutrophils isolated from whole blood (1.25×10^6 /ml) with or without adenosine deaminase (0.125 U/ml). At the end of the incubation, the medium was removed and the monolayers of fibroblasts or endothelial cells and adherent neutrophils were fixed by addition of formaldehyde (3.7%) and, after washing to remove non-adherent neutrophils, adherent neutrophils were stained with Weigart's hematoxylin and counted under a light microscope.

mice = conditions: cited from earlier work
[6] = test system: pentylenetetrazol (PTZ)-induced seizures in mice; experiment: PTZ-induced seizures; format: in vivo, male Swiss Webster mice; conditions: for attenuation of chemical and electroshock induced seizures: experimental animal models; for oral anticonvulsant activity: 45 minutes prior to PTZ; for Percent Seizure: 45 min prior to PTZ, N = 7; for Seizure Score: mean ± standard deviation
dog hearts = conditions: cited from earlier work
isolated rat hearts = conditions: normoxic, hypoxic, anoxic or ischemic conditions; alone; cited from earlier work

OC[C@H]1O[C@@H](n2cnc3c2N=CNC[C@H]3O)C[C@@H]1O [2'-deoxycoformycin]
effect on adenosine release (rat cardiomyocytes; inhibition of adenosine deaminase alone): no effect on adenosine release

NC[C@H]1O[C@@H](n2nc(Br)c3c(N)ncnc32)[C@H](O)[C@@H]1O [GP-1-515]
Preischemic Flow [1]: 6.5 ± 0.3 mL/min/g
Functional Recovery [1]: 79.0 ± 3.4 % preischemic LVDP
inhibition of contraction in the isolated ileum [2]: Inhibition of contraction; also recorded: attenuate contraction; also recorded: dose-dependent inhibition
reversal of inhibition of contraction [2]: reversal by both 8SPT and ADA; also recorded: reversal of these inhibitions
animals in which CFRs were abolished ([3]; Folts model, dogs): 3 of 8 and 3 out of 8
frequency and change in flow of CFRs where not abolished ([3]; dog, in vivo): reduced both the frequency and the change in flow
decline in function / wall thickening with pacing-induced ischemia (anesthetized male dogs): attenuates the decline in wall thickening; also recorded: attenuated the decline in function

NC[C@H]1O[C@@H](n2nc(I)c3c(N)ncnc32)[C@H](O)[C@@H]1O [GP-1-547]
Preischemic Flow [1]: 6.2 ± 0.3 mL/min/g
Functional Recovery [1]: 79.0 ± 3.1 % preischemic LVDP
inhibition of contraction in the isolated ileum [2]: Inhibition of contraction; also recorded: attenuate contraction; also recorded: dose-dependent inhibition
reversal of inhibition of contraction [2]: reversal by both 8SPT and ADA; also recorded: reversal of these inhibitions

NC[C@H]1O[C@@H](n2cnc3c(N)ncnc32)[C@H](O)[C@@H]1O [GP-1-238, 5'-amino-5'-deoxyadenosine]
increase of adenosine release without ADA inhibition [4]: not apparent in the absence of ADA inhibition
increase in adenosine release (rat cardiomyocytes; together with ADA inhibition): 6 fold
inhibition of cardiac adenosine kinase in vivo (cardiac adenosine kinase): completely inhibited adenosine kinase in vivo

C[C@H]1O[C@@H](n2cc(I)c3c(N)ncnc32)[C@H](O)[C@@H]1O [GP-1-456, 5'-deoxy-5-iodotubercidin, reference compound]
inhibition of neutrophil adhesion to endothelial cells [5]: inhibit neutrophil adhesion to endothelial cells; also recorded: dose-dependent inhibition
reversal of inhibition of neutrophil adhesion by adenosine deaminase [5]: reversed by adenosine deaminase treatment; also recorded: reversal of these inhibitions
flaccidity and locomotor activity (mice): pronounced general flaccidity and much-reduced spontaneous locomotor activity
hypothermia (mice): cause hypothermia
inhibition of PTZ induced seizures ([6]; IP 1, 5 and 10 mg/kg): dose-dependent inhibition
reversal of inhibition of PTZ induced seizures ([6]; IP […] with theophylline 34 mg/kg or 8-sulfophenyltheophylline 70 mg/kg): reversal of this inhibition by the central adenosine receptor antagonist theophylline but not the peripheral antagonist 8-sulfophenyltheophylline
attenuation of chemical and electroshock induced seizures [6]: potent effects
oral anticonvulsant activity [6]: exhibit oral anticonvulsant activity

CNc1ncnc2c1ncn2[C@@H]1O[C@H](CN)[C@@H](O)[C@H]1O [GP-1-272]
inhibition of neutrophil adhesion to endothelial cells [5]: inhibit neutrophil adhesion to endothelial cells; also recorded: dose-dependent inhibition
reversal of inhibition of neutrophil adhesion by adenosine deaminase [5]: reversed by adenosine deaminase treatment; also recorded: reversal of these inhibitions

C[C@H]1O[C@@H](n2nc(I)c3cncnc32)[C@H](O)[C@@H]1O [GP-1-560, 3-iodo-1-(5'-deoxy-B-D-ribofuranosyl)pyrazolo[3,4-d]pyrimidine]
attenuation of chemical and electroshock induced seizures [6]: potent effects
Latency To First Seizure ([6]; oral 30 mg/kg): 4.5 min
Percent Seizure ([6]; oral 30 mg/kg): 71%
Seizure Score ([6]; oral 30 mg/kg): 0.71 ± 0.5
Percent Seizure ([6]; oral 50 mg/kg): 43%
Seizure Score ([6]; oral 50 mg/kg): 1.0 ± 0.9
Latency To First Seizure ([6]; oral 50 mg/kg, p < 0.05 vs. Control): 7.0 min
oral anticonvulsant activity [6]: exhibit oral anticonvulsant activity

Nc1ncnc2c1c(I)cn2[C@@H]1O[C@H](CO)[C@@H](O)[C@H]1O [5-iodotubercidin]
flaccidity and locomotor activity (mice): pronounced general flaccidity and much-reduced spontaneous locomotor activity
hypothermia (mice): cause hypothermia
effect in ischemia and reperfusion (dog hearts): inconsistent effects
perfusate adenosine concentration (isolated rat hearts): no increase in perfusate adenosine concentration

Source: patent US5864033A, “Adenosine kinase inhibitors” (priority 1995, dated 1999)
